Columns and labels:
[1] = system: Danio rerio embryo; experiment: EC50 Yolk sac size_Increase; conditions: exposure time: 4 dpf
Method: (§1)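 Zebrafish embryos (UFZ-OBI strain) were exposed from 2 hpf for 48 h (2 dpf) or 96 h (4 dpf) at 28 °C; spontaneous tail coiling was scored at 25 hpf. Morphological features from automated image analysis (FishInspector), heart rate and locomotor response were fitted with drc models. Quantal endpoints were dichotomised at 2.5 SD from controls and fitted with a log-logistic model; heart rate, pigmentation and STC were normalised to the replicate control mean. Betamethasone was tested as betamethasone dipropionate, diflorasone as diflorasone diacetate.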

[2] = system: Danio rerio embryo; experiment: EC10 Otolith-eye distance_Decrease; higher = less potent; conditions: exposure time: 4 dpf
Method: as §1

[3] = system: Danio rerio embryo; experiment: EC20 Eye size_Decrease; higher = less potent; conditions: exposure time: 4 dpf
Method: as §1

[4] = system: Danio rerio embryo; experiment: EC20 Head trunk angle_Decrease; higher = less potent; conditions: exposure time: 2 dpf
Method: as §1

[5] = system: Danio rerio embryo; experiment: EC50 Body length_Decrease
Method: as §1

[6] = system: Danio rerio embryo; experiment: EC10 Curvature_Increase; higher = less potent
Method: as §1

[7] = system: Danio rerio embryo; experiment: EC50 Curvature_Increase
Method: as §1

[8] = system: Danio rerio embryo; experiment: EC10 Pericard size_Increase; higher = less potent; conditions: exposure time: 4 dpf
Method: as §1

[9] = system: Danio rerio embryo; experiment: EC20 Eye-jaw distance_Decrease; higher = less potent; conditions: exposure time: 4 dpf
Method: as §1

[10] = system: Danio rerio embryo
Method: as §1

[11] = system: Danio rerio embryo; experiment: EC50 Eye-jaw distance_Decrease; conditions: exposure time: 4 dpf
Method: as §1

[12] = system: Danio rerio embryo; experiment: EC20 Curvature_Increase; higher = less potent
Method: as §1

[13] = system: Danio rerio embryo; experiment: EC10 Bladder size_Decrease; higher = less potent; conditions: exposure time: 4 dpf
Method: as §1

[14] = system: Danio rerio embryo; experiment: EC20 Otolith-eye distance_Decrease; higher = less potent; conditions: exposure time: 4 dpf
Method: as §1

[15] = system: Danio rerio embryo; experiment: EC10 Yolk sac size_Increase; higher = less potent; conditions: exposure time: 4 dpf
Method: as §1

[16] = system: Danio rerio embryo; conditions: exposure time: 4 dpf
Method: as §1

[17] = system: Danio rerio embryo; experiment: EC50 Otolith-eye distance_Decrease; conditions: exposure time: 4 dpf
Method: as §1

[18] = system: Danio rerio embryo; experiment: EC20 Pericard size_Increase; higher = less potent; conditions: exposure time: 4 dpf
Method: as §1

[19] = system: Danio rerio embryo; experiment: EC10 Body length_Decrease; higher = less potent
Method: as §1

[20] = system: Danio rerio embryo; experiment: EC20 Body length_Decrease; higher = less potent
Method: as §1

[21] = system: Danio rerio embryo; experiment: EC20 LMR dark; higher = less potent; conditions: exposure time: 4 dpf
Method: as §1

[22] = system: Danio rerio embryo; experiment: EC50 Pericard size_Increase; conditions: exposure time: 4 dpf
Method: as §1

[23] = system: Danio rerio embryo; experiment: EC10 Eye-jaw distance_Decrease; higher = less potent; conditions: exposure time: 4 dpf
Method: as §1

[24] = system: Danio rerio embryo; experiment: spontaneous tail coiling frequency (coils/min/embryo); higher = more spontaneous movement; conditions: 25 hpf
Method: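 Spontaneous tail coilings of zebrafish embryos exposed from 2 hpf were recorded at 24-25 hpf in 1-min videos and detected by a KNIME workflow from grey-value variance. Betamethasone was tested as the dipropionate, diflorasone as the diacetate.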

[25] = system: Danio rerio embryo; experiment: EC20 Yolk sac size_Increase; higher = less potent; conditions: exposure time: 4 dpf
Method: as §1

[26] = system: Danio rerio embryo; experiment: EC10 LMR dark; higher = less potent; conditions: exposure time: 4 dpf
Method: as §1

[27] = system: Danio rerio embryo; experiment: EC20 Bladder size_Decrease; higher = less potent; conditions: exposure time: 4 dpf
Method: as §1

[28] = system: Danio rerio embryo; experiment: EC10 Any effect; higher = less potent
Method: as §1

[29] = system: Danio rerio embryo; experiment: EC50 Bladder size_Decrease; conditions: exposure time: 4 dpf
Method: as §1

[30] = system: Danio rerio embryo; experiment: EC20 Any effect; higher = less potent
Method: as §1

CN(Cc1cnc2nc(N)nc(N)c2n1)c1ccc(C(=O)N[C@@H](CCC(=O)O)C(=O)O)cc1 [Methotrexate]
Conditions | EC10 Bladder size Decrease [µM] | EC10 Eye-jaw distance Decrease [µM] | EC10 LMR dark [µM] | EC10 Otolith-eye distance Decrease [µM] | EC10 Pericard size Increase [µM] | EC10 Yolk sac size Increase [µM] | EC20 Bladder size Decrease [µM] | EC20 Eye size Decrease [µM] | EC20 Eye-jaw distance Decrease [µM] | EC20 Head trunk angle Decrease [µM] | EC20 LMR dark [µM] | EC20 Otolith-eye distance Decrease [µM] | EC20 Pericard size Increase [µM] | EC20 Yolk sac size Increase [µM] | EC50 Bladder size Decrease [µM] | EC50 Eye-jaw distance Decrease [µM] | EC50 LMR dark [µM] | EC50 Otolith-eye distance Decrease [µM] | EC50 Pericard size Increase [µM] | EC50 Yolk sac size Increase [µM]
[1] | – | – | – | – | – | – | – | – | – | – | – | – | – | – | – | – | – | – | – | 173
[2] | – | – | – | 116 | – | – | – | – | – | – | – | – | – | – | – | – | – | – | – | –
[3] | – | – | – | – | – | – | – | 116 | – | – | – | – | – | – | – | – | – | – | – | –
[4] | – | – | – | – | – | – | – | – | – | 180 | – | – | – | – | – | – | – | – | – | –
[8] | – | – | – | – | 129 | – | – | – | – | – | – | – | – | – | – | – | – | – | – | –
[9] | – | – | – | – | – | – | – | – | 146 | – | – | – | – | – | – | – | – | – | – | –
[11] | – | – | – | – | – | – | – | – | – | – | – | – | – | – | – | 197 | – | – | – | –
[13] | 95.7 | – | – | – | – | – | – | – | – | – | – | – | – | – | – | – | – | – | – | –
[14] | – | – | – | – | – | – | – | – | – | – | – | 154 | – | – | – | – | – | – | – | –
[15] | – | – | – | – | – | 20.2 | – | – | – | – | – | – | – | – | – | – | – | – | – | –
[16] | – | – | – | – | – | – | – | – | – | – | – | – | – | – | – | – | 243 | – | – | –
[17] | – | – | – | – | – | – | – | – | – | – | – | – | – | – | – | – | – | 248 | – | –
[18] | – | – | – | – | – | – | – | – | – | – | – | – | 193 | – | – | – | – | – | – | –
[21] | – | – | – | – | – | – | – | – | – | – | 206 | – | – | – | – | – | – | – | – | –
[22] | – | – | – | – | – | – | – | – | – | – | – | – | – | – | – | – | – | – | 385 | –
[23] | – | 122 | – | – | – | – | – | – | – | – | – | – | – | – | – | – | – | – | – | –
[25] | – | – | – | – | – | – | – | – | – | – | – | – | – | 44.7 | – | – | – | – | – | –
[26] | – | – | 186 | – | – | – | – | – | – | – | – | – | – | – | – | – | – | – | – | –
[27] | – | – | – | – | – | – | 99.9 | – | – | – | – | – | – | – | – | – | – | – | – | –
[29] | – | – | – | – | – | – | – | – | – | – | – | – | – | – | 108 | – | – | – | – | –

Conditions | EC10 Any effect [µM] | EC10 Body length Decrease [µM] | EC10 Curvature Increase [µM] | EC20 Any effect [µM] | EC20 Body length Decrease [µM] | EC20 Curvature Increase [µM] | EC50 Any effect [µM] | EC50 Body length Decrease [µM] | EC50 Curvature Increase [µM] | EC50 LMR ligth decrease [µM] | spontaneous tail coiling frequency
[5], exposure time: 2 dpf | – | – | – | – | – | – | – | 241 | – | – | –
[5], exposure time: 4 dpf | – | – | – | – | – | – | – | 214 | – | – | –
[6], exposure time: 2 dpf | – | – | 133 | – | – | – | – | – | – | – | –
[6], exposure time: 4 dpf | – | – | 172 | – | – | – | – | – | – | – | –
[7], exposure time: 2 dpf | – | – | – | – | – | – | – | – | 250 | – | –
[7], exposure time: 4 dpf | – | – | – | – | – | – | – | – | 219 | – | –
[10], exposure time: 2 dpf | – | – | – | – | – | – | 207 | – | – | – | –
[10], exposure time: 4 dpf | – | – | – | – | – | – | 116 | – | – | 127 | –
[12], exposure time: 2 dpf | – | – | – | – | – | 168 | – | – | – | – | –
[12], exposure time: 4 dpf | – | – | – | – | – | 188 | – | – | – | – | –
[19], exposure time: 2 dpf | – | 151 | – | – | – | – | – | – | – | – | –
[19], exposure time: 4 dpf | – | 104 | – | – | – | – | – | – | – | – | –
[20], exposure time: 2 dpf | – | – | – | – | 180 | – | – | – | – | – | –
[20], exposure time: 4 dpf | – | – | – | – | 136 | – | – | – | – | – | –
[24], 43.5 µM | – | – | – | – | – | – | – | – | – | – | 3.02
[24], 65.2 µM | – | – | – | – | – | – | – | – | – | – | 3.58
[24], 97.8 µM | – | – | – | – | – | – | – | – | – | – | 2.42
[24], 146.7 µM | – | – | – | – | – | – | – | – | – | – | 1.83
[24], 220.1 µM | – | – | – | – | – | – | – | – | – | – | 2.71
[24], 330.1 µM | – | – | – | – | – | – | – | – | – | – | 3.53
[24], 440.1 µM | – | – | – | – | – | – | – | – | – | – | 3.51
[28], exposure time: 2 dpf | 93.9 | – | – | – | – | – | – | – | – | – | –
[28], exposure time: 4 dpf | 35.7 | – | – | – | – | – | – | – | – | – | –
[30], exposure time: 2 dpf | – | – | – | 126 | – | – | – | – | – | – | –
[30], exposure time: 4 dpf | – | – | – | 55.2 | – | – | – | – | – | – | –

From the supplement of paper PMC9013687
